# Results from US9376442B2, “Methylpyrrolopyrimidinecarboxamides” (Takeda GmbH, priority 2009, dated 2016).
# Molecular target: T1, PDE5A1 (Homo sapiens, UniProt O76074)
# T1 construct: from tissue; host or cells: human platelets from fresh donor blood (10,000 x g supernatant of sonicated lysate)
# Assay: Inhibition of type 5 phosphodiesterase (PDE5) activity, modified SPA test with human platelet lysate
# Format: biochemical
# Details: 0.5 μM cGMP, read-out: PDE5A1 inhibitory values [measured as −log IC50 (mol/l)] (converted)
# Summary of the method: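 Scintillation proximity assay with [3H]cGMP tracer at 0.5 μM total cGMP, stopped after 15 min with beads containing IBMX. PDE3 and PDE2 activities suppressed with motapizone (1 μM) and a PDE2 inhibitor (10 nM). Human platelet supernatant served as the enzyme, with compound preincubated 5 min at 37° C; IC50 values from concentration-effect curves.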
row,Structure (SMILES),IC50
1,"COc1cc(OCC2CC2)c(-c2ncnc3c(C(=O)N[C@@H]4CCN(C(=O)[C@H](C)O)C4)c(C)[nH]c23)cc1F [Example F116, 4-[2-(Cyclopropylmethoxy)-5-fluoro-4-methoxyphenyl]-N-{(3R)-1-[(2S)-2-hydroxypropanoyl]pyrrolidin-3-yl}-6-methyl-5H-pyrrolo[3,2-d]pyrimidine-7-carboxamide]",< 1 nM
2,"CCOc1ccc(C(F)(F)F)cc1-c1ncnc2c(C(=O)NC3CCN(C(=O)CO)CC3)c(C)[nH]c12 [Example F63, 4-[2-Ethoxy-5-(trifluoromethyl)phenyl]-N-[1-(hydroxyacetyl)piperidin-4-yl]-6-methyl-5H-pyrrolo[3,2-d]pyrimidine-7-carboxamide]",< 1 nM
3,"COc1cc(OCC2CC2)c(-c2ncnc3c(C(=O)N[C@@H]4CCN(C(C)=O)C4)c(C)[nH]c23)cc1F [Example E186, N-[(3R)-1-Acetylpyrrolidin-3-yl]-4-[2-(cyclopropylmethoxy)-5-fluoro-4-methoxyphenyl]-6-methyl-5H-pyrrolo[3,2-d]pyrimidine-7-carboxamide]",< 1 nM
4,"COCC(=O)N[C@H]1CC[C@H](NC(=O)c2c(C)[nH]c3c(-c4cc(C(C)=O)ccc4OCC4CC4)ncnc23)CC1 [Example E168, 4-[5-Acetyl-2-(cyclopropylmethoxy)phenyl]-N-{trans-4-[(methoxyacetyl)amino]cyclohexyl}-6-methyl-5H-pyrrolo[3,2-d]pyrimidine-7-carboxamide]",< 1 nM
5,"CCC(=O)N[C@H]1CC[C@H](NC(=O)c2c(C)[nH]c3c(-c4ccc(F)cc4OCC4CC4)ncnc23)CC1 [Example E23, 4-[2-(Cyclopropylmethoxy)-4-fluorophenyl]-6-methyl-N-[trans-4-(propionylamino)cyclohexyl]-5H-pyrrolo[3,2-d]pyrimidine-7-carboxamide]",< 1 nM
6,"COCC(=O)N[C@H]1CC[C@H](NC(=O)c2c(C)[nH]c3c(-c4ccc(F)cc4OCC4CC4)ncnc23)CC1 [Example E24, 4-[2-(Cyclopropylmethoxy)-4-fluorophenyl]-N-{trans-4-[(methoxyacetyl)amino]cyclohexyl}-6-methyl-5H-pyrrolo[3,2-d]pyrimidine-7-carboxamide]",< 1 nM
7,"CC(=O)N[C@H]1CC[C@@H](NC(=O)c2c(C)[nH]c3c(-c4ccc(F)cc4OCC4CC4)ncnc23)CC1 [Example E25, N-(cis-4-acetamidocyclohexyl)-4-[2-(cyclopropylmethoxy)-4-fluorophenyl]-6-methyl-5H-pyrrolo[3,2-d]pyrimidine-7-carboxamide]",< 1 nM
8,"CC(=O)N[C@H]1CC[C@H](NC(=O)c2c(C)[nH]c3c(-c4ccc(F)cc4OCC4CC4)ncnc23)CC1 [Example E22, N-(trans-4-acetamidocyclohexyl)-4-[2-(cyclopropylmethoxy)-4-fluorophenyl]-6-methyl-5H-pyrrolo[3,2-d]pyrimidine-7-carboxamide]",< 1 nM
9,"CC(=O)c1ccc(OCC2CC2)c(-c2ncnc3c(C(=O)N[C@H]4CC[C@H](NC(=O)[C@H](C)O)CC4)c(C)[nH]c23)c1 [Example F105, 4-[5-Acetyl-2-(cyclopropylmethoxy)phenyl]-N-(trans-4-{[(2S)-2-hydroxypropanoyl]amino}cyclohexyl)-6-methyl-5H-pyrrolo[3,2-d]pyrimidine-7-carboxamide]",< 1 nM
10,"CC(=O)N1CCC(NC(=O)c2c(C)[nH]c3c(-c4c(OCC5CC5)ccc5c4OCO5)ncnc23)CC1 [Example E1, N-(1-Acetylpiperidin-4-yl)-4-[5-(cyclopropylmethoxy)-1,3-benzodioxol-4-yl]-6-methyl-5H-pyrrolo[3,2-d]pyrimidine-7-carboxamide]",< 1 nM
11,"COc1ccc(-c2ncnc3c(C(=O)N[C@@H]4CCN(C(C)=O)C4)c(C)[nH]c23)c(OCC2CC2)c1 [Example E60, N-[(3R)-1-acetylpyrrolidin-3-yl]-4-[2-(cyclopropylmethoxy)-4-methoxyphenyl]-6-methyl-5H-pyrrolo[3,2-d]pyrimidine-7-carboxamide]",< 1 nM
12,"CCC(=O)N1CC[C@@H](NC(=O)c2c(C)[nH]c3c(-c4cc(F)c(OC)cc4OCC4CC4)ncnc23)[C@H](O)C1 (relative stereo) [Example E143, 4-[2-(Cyclopropylmethoxy)-5-fluoro-4-methoxyphenyl]-N-[(3R*,4R*)-3-hydroxy-1-propanoylpiperidin-4-yl]-6-methyl-5H-pyrrolo[3,2-d]pyrimidine-7-carboxamide]",< 1 nM
13,"Cc1[nH]c2c(-c3ccc(F)cc3OCC3CC3)ncnc2c1C(=O)N[C@@H]1CCN(C(=O)[C@H](C)O)C1 [Example F18, 4-[2-(cyclopropylmethoxy)-4-fluorophenyl]-N-{(3R)-1-[(2S)-2-hydroxypropanoyl]pyrrolidin-3-yl}-6-methyl-5H-pyrrolo[3,2-d]pyrimidine-7-carboxamide]",< 1 nM
14,"CCC(=O)N[C@H]1CC[C@@H](NC(=O)c2c(C)[nH]c3c(-c4c(OCC5CC5)ccc5c4OCO5)ncnc23)CC1 [Example E10, 4-[5-(Cyclopropylmethoxy)-1,3-benzodioxol-4-yl]-6-methyl-N-[cis-4-(propionylamino)cyclohexyl]-5H-pyrrolo[3,2-d]pyrimidine-7-carboxamide]",< 1 nM
15,"COc1cc(OCC2CC2)c(-c2ncnc3c(C(=O)N[C@H]4CC[C@@H](NC(=O)[C@H](C)O)CC4)c(C)[nH]c23)cc1F [Example F88, 4-[2-(Cyclopropylmethoxy)-5-fluoro-4-methoxyphenyl]-N-(cis-4-{[(2S)-2-hydroxypropanoyl]amino}cyclohexyl)-6-methyl-5H-pyrrolo[3,2-d]pyrimidine-7-carboxamide]",< 1 nM
16,"COCC(=O)N1CC[C@H](O)[C@@H](NC(=O)c2c(C)[nH]c3c(-c4cc(OC)c(F)cc4OCC4CC4)ncnc23)C1 (relative stereo) [Example E118, 4-[2-(cyclopropylmethoxy)-4-fluoro-5-methoxyphenyl]-N-[(3S*,4S*)-4-hydroxy-1-(methoxyacetyl)piperidin-3-yl]-6-methyl-5H-pyrrolo[3,2-d]pyrimidine-7-carboxamide]",< 1 nM
17,"COCC(=O)N[C@H]1CC[C@@H](NC(=O)c2c(C)[nH]c3c(-c4cc(C(C)C)ccc4OCC4CC4)ncnc23)CC1 [Example E162, 4-[2-(Cyclopropylmethoxy)-5-(propan-2-yl)phenyl]-N-{cis-4-[(methoxyacetyl)amino]cyclohexyl}-6-methyl-5H-pyrrolo[3,2-d]pyrimidine-7-carboxamide]",1 to 10 nM
18,"COc1cc(OCC2CC2)c(-c2ncnc3c(C(=O)N[C@H]4CC[C@@H](NC(C)=O)CC4)c(C)[nH]c23)cc1F [Example E138, N-(cis-4-Acetamidocyclohexyl)-4-[2-(cyclopropylmethoxy)-5-fluoro-4-methoxyphenyl]-6-methyl-5H-pyrrolo[3,2-d]pyrimidine-7-carboxamide]",< 1 nM
19,"COc1cc(OCC2CC2)c(-c2ncnc3c(C(=O)NC4CCN(C(C)=O)CC4)c(C)[nH]c23)cc1F [Example E131, N-(1-Acetylpiperidin-4-yl)-4-[2-(cyclopropylmethoxy)-5-fluoro-4-methoxyphenyl]-6-methyl-5H-pyrrolo[3,2-d]pyrimidine-7-carboxamide]",< 1 nM
20,"CC(=O)N1CCC(NC(=O)c2c(C)[nH]c3c(-c4cc(C)c(F)cc4OCC4CC4)ncnc23)CC1 [Example E119, N-(1-Acetylpiperidin-4-yl)-4-[2-(cyclopropylmethoxy)-4-fluoro-5-methylphenyl]-6-methyl-5H-pyrrolo[3,2-d]pyrimidine-7-carboxamide]",< 1 nM
21,"CCC(=O)N1CC[C@@H](NC(=O)c2c(C)[nH]c3c(-c4ccc(OC)cc4OCC4CC4)ncnc23)C1 [Example E61, 4-[2-(Cyclopropylmethoxy)-4-methoxyphenyl]-6-methyl-N-[(3R)-1-propionylpyrrolidin-3-yl]-5H-pyrrolo[3,2-d]pyrimidine-7-carboxamide]",< 1 nM
22,"COCC(=O)N[C@H]1CC[C@H](NC(=O)c2c(C)[nH]c3c(-c4c(OCC5CC5)ccc5c4OCO5)ncnc23)CC1 [Example E7, 4-[5-(Cyclopropylmethoxy)-1,3-benzodioxol-4-yl]-N-{trans-4-[(methoxyacetyl)amino]cyclohexyl}-6-methyl-5H-pyrrolo[3,2-d]pyrimidine-7-carboxamide]",< 1 nM
23,"Cc1[nH]c2c(-c3c(OCC4CC4)ccc4c3OCO4)ncnc2c1C(=O)N[C@H]1CC[C@@H](NC(=O)CO)CC1 [Example F5, 4-[5-(Cyclopropylmethoxy)-1,3-benzodioxol-4-yl]-N-[cis-4-(glycoloylamino)cyclohexyl]-6-methyl-5H-pyrrolo[3,2-d]pyrimidine-7-carboxamide]",< 1 nM
24,"COCC(=O)N1CC[C@@H](NC(=O)c2c(C)[nH]c3c(-c4cc(OC)c(F)cc4OCC4CC4)ncnc23)C1 [Example E181, 4-[2-(Cyclopropylmethoxy)-4-fluoro-5-methoxyphenyl]-N-[(3R)-1-(methoxyacetyl)pyrrolidin-3-yl]-6-methyl-5H-pyrrolo[3,2-d]pyrimidine-7-carboxamide]",< 1 nM
25,"COc1ccc(OCC2CC2)c(-c2ncnc3c(C(=O)N[C@@H]4CCN(C(C)=O)C[C@H]4O)c(C)[nH]c23)c1 (relative stereo) [Example E78, N-[(3R*,4R*)-1-acetyl-3-hydroxypiperidin-4-yl]-4-[2-(cyclopropylmethoxy)-5-methoxyphenyl]-6-methyl-5H-pyrrolo[3,2-d]pyrimidine-7-carboxamide]",< 1 nM
26,"COc1cc(-c2ncnc3c(C(=O)N[C@@H]4CCN(C(=O)[C@H](C)O)C4)c(C)[nH]c23)c(OCC2CC2)cc1F [Example F112, 4-[2-(Cyclopropylmethoxy)-4-fluoro-5-methoxyphenyl]-N-{(3R)-1-[(2S)-2-hydroxypropanoyl]pyrrolidin-3-yl}-6-methyl-5H-pyrrolo[3,2-d]pyrimidine-7-carboxamide]",< 1 nM
